Numbers after ± are expanded uncertainties.
Experiment: mn = molality of the nth substance listed, in mol/kg
Conditions: 101 kPa, Liquid, Pycnometric method

For CC(C)C[C@H](NC(=O)CN)C(=O)O [glycyl-L-leucine] + O, which mass density (293.15 K, m1 = 0.01984) is on record?
Its mass density is 999.17 ± 0.9 kg/m3.

What about the mass density (293.15 K, m1 = 0.02628) of the same molecule?
Its mass density is 999.49 ± 0.9 kg/m3.

What about the mass density (293.15 K, m1 = 0.03301) of the same molecule?
The mass density was 999.83 ± 0.9 kg/m3.

And the mass density (293.15 K, m1 = 0.03973)?
Its mass density is 1000.15 ± 0.9 kg/m3.

What about the mass density (293.15 K, m1 = 0.04936) of the same molecule?
The mass density was 1000.61 ± 0.9 kg/m3.

What about the mass density (293.15 K, m1 = 0.05894) of the same molecule?
The mass density was 1001.06 ± 0.9 kg/m3.

What about the mass density (293.15 K, m1 = 0.06889) of the same molecule?
Its mass density is 1001.56 ± 0.91 kg/m3.

And the mass density (293.15 K, m1 = 0.07838)?
Its mass density is 1002.04 ± 0.91 kg/m3.

What about the mass density (293.15 K, m1 = 0.08821) of the same molecule?
Its mass density is 1002.51 ± 0.91 kg/m3.

What does the source list for CC(C)[C@H](NC(=O)CN)C(=O)O [glycyl-L-valine] + O?
mass density (293.15 K, m1 = 0.01993): 999.24 ± 0.9 kg/m3; mass density (293.15 K, m1 = 0.04051): 1000.32 ± 0.9 kg/m3; mass density (293.15 K, m1 = 0.06065): 1001.37 ± 0.91 kg/m3; mass density (293.15 K, m1 = 0.08097): 1002.43 ± 0.91 kg/m3; mass density (293.15 K, m1 = 0.1005): 1003.46 ± 0.91 kg/m3; mass density (293.15 K, m1 = 0.1203): 1004.51 ± 0.91 kg/m3; mass density (293.15 K, m1 = 0.1403): 1005.53 ± 0.91 kg/m3; mass density (293.15 K, m1 = 0.1594): 1006.55 ± 0.91 kg/m3; mass density (293.15 K, m1 = 0.1799): 1007.62 ± 0.91 kg/m3; mass density (293.15 K, m1 = 0.1995): 1008.64 ± 0.91 kg/m3

Which mass density (293.15 K, m1 = 0.02014) does the source give for NCC(=O)NCC(=O)O [glycylglycine] + O here?
The mass density was 999.33 ± 0.9 kg/m3.

What about the mass density (293.15 K, m1 = 0.04077) of the same molecule?
Its mass density is 1000.49 ± 0.9 kg/m3.

What about the mass density (293.15 K, m1 = 0.06148) of the same molecule?
Its mass density is 1001.64 ± 0.91 kg/m3.

What about the mass density (293.15 K, m1 = 0.09135) of the same molecule?
Its mass density is 1003.33 ± 0.91 kg/m3.

And the mass density (293.15 K, m1 = 0.1226)?
The mass density was 1005.06 ± 0.91 kg/m3.

And the mass density (293.15 K, m1 = 0.1538)?
Its mass density is 1006.84 ± 0.91 kg/m3.

What about the mass density (293.15 K, m1 = 0.1823) of the same molecule?
Its mass density is 1008.4 ± 0.91 kg/m3.

What about the mass density (293.15 K, m1 = 0.2128) of the same molecule?
The mass density was 1010.11 ± 0.91 kg/m3.

What about the mass density (293.15 K, m1 = 0.2534) of the same molecule?
The mass density was 1012.46 ± 0.92 kg/m3.

For O=C([O-])C(F)(F)C(F)(F)C(F)(F)C(F)(F)C(F)(F)C(F)(F)C(F)(F)F.[Na+] [sodium perfluorooctanoate] + O, which mass density (293.15 K, m1 = 0.04) is on record?
Its mass density is 1007.53 ± 0.91 kg/m3.

And the mass density (298.15 K, m1 = 0.04)?
The mass density was 1006.24 ± 0.38 kg/m3.

And the mass density (303.15 K, m1 = 0.04)?
The mass density was 1004.73 ± 0.41 kg/m3.

What about the mass density (308.15 K, m1 = 0.04) of the same molecule?
The mass density was 1003.15 ± 0.92 kg/m3.
